Among the data in patent US9938262B2, “Benzamides” (Merck Patent GmbH, priority 2011, dated 2018) are activation and EC50 values, retold here.

The target of one assay is T1, FSHR (Homo sapiens, UniProt P23945).
T1 construct: expressed in transfected cells; host or cells: CHO (Cho-FSHR-LUC-1-1-43)
T1 sequence (P23945 18-695): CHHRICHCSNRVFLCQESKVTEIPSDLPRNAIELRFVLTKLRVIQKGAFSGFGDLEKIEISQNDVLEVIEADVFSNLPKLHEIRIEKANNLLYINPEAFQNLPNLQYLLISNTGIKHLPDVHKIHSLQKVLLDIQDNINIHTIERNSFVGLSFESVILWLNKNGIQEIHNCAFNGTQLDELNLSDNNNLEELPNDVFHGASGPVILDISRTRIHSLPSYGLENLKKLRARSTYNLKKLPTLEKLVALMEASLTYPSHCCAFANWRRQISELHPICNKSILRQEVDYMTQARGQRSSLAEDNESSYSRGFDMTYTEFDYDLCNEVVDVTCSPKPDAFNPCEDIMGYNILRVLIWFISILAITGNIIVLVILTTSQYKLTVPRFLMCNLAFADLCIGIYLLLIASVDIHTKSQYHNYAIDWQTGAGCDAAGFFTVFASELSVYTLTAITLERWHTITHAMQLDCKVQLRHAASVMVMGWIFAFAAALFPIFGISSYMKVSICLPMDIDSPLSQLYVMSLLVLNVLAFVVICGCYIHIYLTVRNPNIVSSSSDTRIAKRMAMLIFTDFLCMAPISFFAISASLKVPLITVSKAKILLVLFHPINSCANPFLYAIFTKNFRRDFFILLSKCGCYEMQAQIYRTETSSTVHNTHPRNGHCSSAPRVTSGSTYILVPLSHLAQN
T1 sequence (P01215 25-116 partner): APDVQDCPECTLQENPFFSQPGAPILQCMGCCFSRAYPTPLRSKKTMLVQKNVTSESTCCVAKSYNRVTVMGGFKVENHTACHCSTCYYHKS
T1 sequence (P01225 19-129 partner): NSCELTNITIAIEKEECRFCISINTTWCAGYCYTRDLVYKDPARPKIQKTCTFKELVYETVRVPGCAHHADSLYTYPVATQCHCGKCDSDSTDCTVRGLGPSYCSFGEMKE
Put plainly: EC50 of cyclic AMP production in CHO FSHR cells + EC20 FSH (Assay A). The class given is cell-based. As to conditions: 1 h; 5 μM; effect relative to maximum response of the FSH standard; Table 1. In outline:
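cAMP HTRF ratio (665/620 nm) read after 1 h, 37 °C exposure of CHO-FSHR cells to compound in presence of EC20 FSH ([…]) and IBMX 200 μM. Responses given relative to FSH standard maximum; EC50 derived.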
On to `Cc1ccccc1N1CCN(c2ccc(C(=O)NCCCN3CCCC3=O)cc2NC(=O)c2ccc(C(F)(F)F)cc2)CC1` [Compound 40], for which the activation at 5 µM is 40%. With `O=C(NCCCN1CCCC1=O)c1ccc(N2CCN(c3ccccn3)CC2)c(NC(=O)c2ccco2)c1` [Compound 126], the activation at 5 µM worked out at 33%. With `Cc1ccccc1N1CCN(c2ccc(C(=O)NCCCN3CCCC3=O)cc2NC(=O)c2cnoc2C)CC1` [Compound 107], the activation at 5 µM worked out at 15%.

The same assay, now with this note: CHO FSHR cells + EC20 FSH; Table 1; read-out: Assay A EC50 of cyclic AMP production.
The term EC50 denotes the concentration giving half of the maximal effect. For `Cc1ccccc1N1CCN(c2ccc(C(=O)NCCCN3CCCC3=O)cc2Nc2ncccn2)CC1` [Compound 242, N-[3-(2-Oxo-pyrrolidin-1-yl)-propyl]-3-(pyrimidin-2-ylamino)-4-(4-o-tolyl-piperazin-1-yl)-benzamide], the concentration giving a half-maximal response (EC50) is 1000 to 10000 nM. With `COc1ccc(CNC(=O)c2ccc(N3CCN(c4ccccc4C)CC3)c(NC(=O)c3ccco3)c2)cc1OC` [Compound 17], the EC50 was 100 to 1000 nM. `Cc1ccccc1N1CCN(c2ccc(C(=O)NCC(=O)NC3CCCC3)cc2NC(=O)c2ccco2)CC1` [Compound 151]: the EC50 lay in the range of 100 to 1000 nM. As for `Cc1ccc(C(=O)Nc2cc(C(=O)NCCCN3CCCC3=O)ccc2N2CCC(c3ccccc3C)CC2)o1` [Compound 165, 5-Methyl-furan-2-carboxylic acid [5-[3-(2-oxo-pyrrolidin-1-yl)-propylcarbamoyl]-2-(4-o-tolyl-piperidin-1-yl)-phenyl]-amide], the EC50 was > 10000 nM. Consider `Cc1ccccc1N1CCN(c2ccc(C(=O)NCCCN3CCCC3=O)cc2NC(=O)c2ccc(F)cc2F)CC1` [Compound 161], for which the concentration for a half-maximal effect (EC50) is 100 to 1000 nM. As for `Cc1ccccc1N1CCN(c2ccc(C(=O)NCCCN3CCCC3=O)cc2NC(=O)c2nc(Br)cs2)CC1` [Compound 178], the EC50 is 1000 to 10000 nM. `COc1cccc(CNC(=O)c2ccc(N3CCN(c4ccccc4C)CC3)c(NC(=O)c3ccco3)c2)c1` [Compound 93, Furan-2-carboxylic acid [5-(3-methoxy-benzylcarbamoyl)-2-(4-o-tolyl-piperazin-1-yl)-phenyl]-amide]: the concentration giving a half-maximal response (EC50) is 100 to 1000 nM.

For `COc1ccccc1N1CCN(c2ccc(C(=O)NCCCN3CCCC3=O)cc2NC(=O)c2ccc(C)o2)CC1` [Compound 173, 5-Methyl-furan-2-carboxylic acid {2-[4-(2-methoxy-phenyl)-piperazin-1-yl]-5-[3-(2-oxo-pyrrolidin-1-yl)-propylcarbamoyl]-phenyl}-amide], the 50% effective concentration (EC50) was in the range of 1000 to 10000 nM. On to `Cc1ccc(C(=O)Nc2cc(C(=O)NCCCNC(=O)OC(C)(C)C)ccc2N2CCN(c3ccccc3C)CC2)o1` [Compound 258, {3-[3-[(5-Methyl-furan-2-carbonyl)-amino]-4-(4-o-tolyl-piperazin-1-yl)-benzoylamino]-propyl}-carbamic acid tert-butyl ester], for which the EC50 lay within 1000 to 10000 nM. On the same count and under the same terms, then `Cc1ccc(C(=O)Nc2cc(C(=O)NCCN3CCN(C(=O)OC(C)(C)C)CC3)ccc2N2CCN(c3ccccc3C)CC2)o1` [Compound 214], with 1000 to 10000 nM. As to `Cc1ccccc1N1CCN(c2ccc(C(=O)NCCCN3CCCC3=O)cc2NC(=O)C(C)(C)C)CC1` [Compound 177, 3-(2,2-Dimethyl-propionylamino)-N-[3-(2-oxo-pyrrolidin-1-yl)-propyl]-4-(4-o-tolyl-piperazin-1-yl)-benzamide], the EC50 was 1000 to 10000 nM. Same read-out and setting: for `CC(=O)N(C)C[C@@H](NC(=O)c1ccc(N2CCN(c3ccccc3C)CC2)c(NC(=O)c2ccco2)c1)c1ccc(Cl)cc1` [Compound 57] the value was 1000 to 10000 nM; for `Cc1ccccc1N1CCN(c2ccc(C(=O)NCc3cccc(-c4c[nH]cn4)c3)cc2NC(=O)c2ccco2)CC1` [Compound 236], 100 to 1000 nM. Same read-out and setting: then `COc1ccc(C(=O)Nc2cc(C(=O)NCCCN3CCCC3=O)ccc2N2CCN(c3ccccc3C)CC2)o1` [Compound 141], with 100 to 1000 nM; and `Cc1ccccc1N1CCN(c2ccc(C(=O)NC3CCN(C(=O)OC(C)(C)C)CC3)cc2NC(=O)c2ccco2)CC1` [Compound 49, 4-[3-[(Furan-2-carbonyl)-amino]-4-(4-o-tolyl-piperazin-1-yl)-benzoylamino]-piperidine-1-carboxylic acid tert-butyl ester], with 100 to 1000 nM.

On to `Cc1cccc(C(=O)Nc2cc(C(=O)NCCCN3CCCC3=O)ccc2N2CCN(c3ccccc3C)CC2)c1` [Compound 34], for which the EC50 was in the range of 1000 to 10000 nM. The same measure, in the same setting: for `COc1ccc(-c2c[nH]nc2CNC(=O)c2ccc(N3CCN(c4ccccc4C)CC3)c(NC(=O)c3ccc(C)o3)c2)cc1` [Compound 172, 5-Methyl-furan-2-carboxylic acid [5-{[4-(4-methoxy-phenyl)-1H-pyrazol-3-ylmethyl]-carbamoyl}-2-(4-o-tolyl-piperazin-1-yl)-phenyl]-amide] the value was 1000 to 10000 nM.

Staying with this assay, now noted: CHO FSHR cells + EC20 FSH; Table 2; read-out: Assay A EC50 of cyclic AMP production.
`Cc1ccccc1N1CCN(c2ccc(C(=O)NC3(c4cccc(C(=O)O)c4)CC3)cc2NC(=O)c2ccco2)CC1` [Compound 267]: the EC50 is 1000 to 10000 nM. Consider `Cc1cccc(C(=O)NCCCNC(=O)c2ccc(N3CCN(c4ccccc4C)CC3)c(NC(=O)c3coc(C4CC4)n3)c2)n1` [Compound 443], for which the EC50 lay within 100 to 1000 nM. On the same count and under the same terms, for `Cc1ccccc1N1CCN(c2ccc(C(=O)N3CCC4(COC4)C3)cc2NC(=O)c2ccco2)CC1` [Compound 587] the value was 1000 to 10000 nM; for `CCCNC(=O)NCCCNC(=O)c1ccc(N2CCN(c3ccccc3C)CC2)c(NC(=O)c2ccco2)c1` [Compound 490], < 100 nM. Regarding `COc1ccc(CNC(=O)c2ccc(N3CCN(c4ccccc4C)CC3)c(NC(=O)c3coc(C4CC4)n3)c2)cc1OC` [Compound 290], the EC50 lay in the range of 100 to 1000 nM. The same measure, in the same setting: then `Cc1ccccc1N1CCN(c2ccc(C(=O)NCCCN3CCCC3=O)cc2NC(=O)c2nccn2C)CC1` [Compound 415], with > 10000 nM. The same measure, in the same setting: for `Cc1ccccc1N1CCN(c2ccc(C(=O)N3CCC4(CC3)COC4)cc2NC(=O)c2coc(C3CC3)n2)CC1` [Compound 571] the value was 100 to 1000 nM; for `Cc1ccccc1N1CCN(c2ccc(C(=O)NCCCN3CC(C)OC3=O)cc2NC(=O)c2coc(C3CC3)n2)CC1` (stereo not drawn) [Compound 366], 100 to 1000 nM; for `Cc1cncnc1N1CCN(c2ccc(C(=O)NCCCN3CCOC3=O)cc2NC(=O)c2coc(C3CC3)n2)CC1` [Compound 460], 100 to 1000 nM.

As to `Cc1ccccc1N1CCN(c2ccc(C(=O)NCCCC(=O)NCCO)cc2NC(=O)c2coc(C3CC3)n2)CC1` [Compound 515], the EC50 is < 100 nM. With `Cn1ccnc1N1CCN(c2ccc(C(=O)NCCCN3CCOC3=O)cc2NC(=O)c2coc(C3CC3)n2)CC1` [Compound 513], the EC50 was in the range of 1000 to 10000 nM. Same read-out and setting: for `Cc1ccccc1N1CCN(c2ccc(C(=O)NCCN3C(=O)CCC3=O)cc2NC(=O)c2coc(C3CC3)n2)CC1` [Compound 347] the value was > 10000 nM. Still for that read-out and setting: then `CCN(CC)Cc1cccc(CNC(=O)c2ccc(N3CCN(c4ccccc4C)CC3)c(NC(=O)c3ccco3)c2)c1` [Compound 473], with 100 to 1000 nM; and `Cc1ccccc1N1CCN(c2ccc(C(=O)NC3CCN(C4CCCC4)C3)cc2NC(=O)c2ccco2)CC1` (stereo not drawn) [Compound 345], with 1000 to 10000 nM. The same measure, in the same setting: for `Cc1ccccc1N1CCN(c2ccc(C(=O)N[C@@H]3CCC[C@@H](O)[C@H]3O)cc2NC(=O)c2coc(C3CC3)n2)CC1` [Compound 480] the value was < 100 nM. On to `Cc1ccccc1N1CCN(c2ccc(C(=O)NCC[C@H]3COC(C)(C)O3)cc2NC(=O)c2coc(C3CC3)n2)CC1` [Compound 535], for which the EC50 lay within 100 to 1000 nM. `Cc1ccccc1N1CCN(c2ccc(C(=O)NC3CCN(S(C)(=O)=O)CC3)cc2NC(=O)c2coc(C3CC3)n2)CC1` [Compound 297]: the EC50 was in the range of 100 to 1000 nM.

Take `Cc1ccc(C(=O)Nc2cc(C(=O)NCCCO)ccc2N2CCN(c3ccccc3C)CC2)o1` [Compound 303]: the EC50 lay in the range of 1000 to 10000 nM. With `Cc1ccccc1N1CCN(c2ccc(C(=O)NCCCN3C(=O)OCC3C)cc2NC(=O)c2coc(C3CC3)n2)CC1` (stereo not drawn) [Compound 332], the EC50 fell in the range of 100 to 1000 nM.

For the compound `Cc1ccccc1N1CCN(c2ccc(C(=O)NCCCN3CCCC3=O)cc2NCc2ccco2)CC1` [Compound 572], the concentration for a half-maximal effect (EC50) is < 100 nM.

Regarding `Cc1ccccc1N1CCN(c2ccc(C(=O)NCCCc3ccccc3)cc2NC(=O)c2coc(C3CC3)n2)CC1` [Compound 278], the EC50 was 1000 to 10000 nM.

For `Cc1ccc(C(=O)Nc2cc(C(=O)NCCCN3C(=O)OCC3(C)C)ccc2N2CCN(c3ccccc3C)CC2)o1` [Compound 369], the EC50 is 1000 to 10000 nM. Regarding `Cc1ccccc1N1CCN(c2ccc(C(=O)NCCCNC(=O)C3CCOCC3)cc2NC(=O)c2coc(C3CC3)n2)CC1` [Compound 441], the EC50 is < 100 nM. On to `Cc1ccccc1N1CCN(c2ccc(C(=O)NCCN(C)C3CCS(=O)(=O)C3)cc2NC(=O)c2ccco2)CC1` (stereo not drawn) [Compound 504], for which the EC50 is 100 to 1000 nM. For `CC(=O)NCCOCCOCCNC(=O)c1ccc(N2CCN(c3ccccc3C)CC2)c(NC(=O)c2coc(C3CC3)n2)c1` [Compound 424], the 50% effective concentration (EC50) was 100 to 1000 nM. For the compound `CC(=O)NCCCNC(=O)c1ccc(N2CCN(c3ccccc3C)CC2)c(NC(=O)c2coc(C3CC3)n2)c1` [Compound 368], the EC50 was 100 to 1000 nM. Consider `O=C(NCCCN1CCCC1=O)c1ccc(N2CCN(c3ccccc3F)CC2)c(NC(=O)c2coc(C3CC3)n2)c1` [Compound 402], for which the EC50 fell in the range of 100 to 1000 nM. The same measure, in the same setting: for `Cc1ccccc1N1CCN(c2ccc(C(=O)NCCCNC(=O)NC(C)(C)C)cc2NC(=O)c2ccco2)CC1` [Compound 493] the value was 100 to 1000 nM; for `O=C(NCCCN1CCCC1=O)c1ccc(N2CCN(c3ccccc3C3CC3)CC2)c(NC(=O)c2coc(C3CC3)n2)c1` [Compound 524], 100 to 1000 nM; for `Cc1ccc(C(=O)Nc2cc(C(=O)NCCCN3CCCC3=O)ccc2N2CCN(c3ccncc3C)CC2)o1` [Compound 475], > 10000 nM. Same read-out and setting: for `Cc1ccccc1N1CCN(c2ccc(C(=O)Nc3ccnn3CC3CCOC3)cc2NC(=O)c2coc(C3CC3)n2)CC1` (stereo not drawn) [Compound 412] the value was 1000 to 10000 nM.
